According to publication PMC10551024, “A deazariboflavin chromophore kinetically stabilizes reduced FAD state in a bifunctional cryptochrome” (Scientific Reports, 2023):

What was measured:
Assay type in all cases: binding
[1] = target: T1, CraCRY (Chlamydomonas reinhardtii, UniProt A8J8W0); assay: UV/vis spectroscopy of purified holoprotein; xanthine/xanthine oxidase redox titration; conditions: co-purified FAD; pH 7.0, Safranin T reference
T1 construct: gene CHLRE_06g278251v5; lacks C-terminal tail (497-595); His-tagged, pET-28a(+), E. coli BL21(DE3); TALON and heparin purified
T1 sequence (A8J8W0 1-496): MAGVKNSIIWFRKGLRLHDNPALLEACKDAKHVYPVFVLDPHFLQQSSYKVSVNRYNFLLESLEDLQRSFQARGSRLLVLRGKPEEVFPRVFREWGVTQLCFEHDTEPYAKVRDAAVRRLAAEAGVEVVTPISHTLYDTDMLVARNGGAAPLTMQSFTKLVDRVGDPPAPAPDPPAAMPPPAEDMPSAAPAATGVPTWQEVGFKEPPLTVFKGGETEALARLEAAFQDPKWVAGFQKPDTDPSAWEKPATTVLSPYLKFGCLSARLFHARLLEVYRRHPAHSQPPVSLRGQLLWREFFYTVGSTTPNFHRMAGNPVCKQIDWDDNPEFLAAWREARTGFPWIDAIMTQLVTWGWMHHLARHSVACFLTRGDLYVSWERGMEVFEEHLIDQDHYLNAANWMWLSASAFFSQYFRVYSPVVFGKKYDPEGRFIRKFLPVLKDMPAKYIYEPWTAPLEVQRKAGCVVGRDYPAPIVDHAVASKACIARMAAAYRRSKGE

[2] = target: T2, At64 (Arabidopsis thaliana, UniProt O48652); assay: as above; conditions: co-purified FAD; pH 7.0, Safranin T reference
T2 construct: gene UVR3; recombinant, pET-28a(+), E. coli C41(DE3)/pLysS
T2 sequence (O48652 20-556): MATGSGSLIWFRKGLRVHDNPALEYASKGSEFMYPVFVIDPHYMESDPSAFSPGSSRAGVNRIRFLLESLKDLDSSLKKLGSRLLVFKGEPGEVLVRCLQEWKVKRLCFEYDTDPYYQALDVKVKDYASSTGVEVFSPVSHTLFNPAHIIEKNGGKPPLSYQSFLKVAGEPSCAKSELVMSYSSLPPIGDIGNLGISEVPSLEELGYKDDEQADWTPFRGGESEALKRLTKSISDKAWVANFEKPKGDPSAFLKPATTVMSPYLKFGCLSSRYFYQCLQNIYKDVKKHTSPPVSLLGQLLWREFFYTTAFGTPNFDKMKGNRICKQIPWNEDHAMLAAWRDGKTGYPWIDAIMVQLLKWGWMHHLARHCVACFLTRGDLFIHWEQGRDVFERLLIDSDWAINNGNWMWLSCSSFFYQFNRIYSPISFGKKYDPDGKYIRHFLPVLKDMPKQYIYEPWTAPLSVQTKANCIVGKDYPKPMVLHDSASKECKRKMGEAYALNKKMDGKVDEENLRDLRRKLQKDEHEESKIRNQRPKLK

[3] = target: T3, At64 (Arabidopsis thaliana, UniProt O48652, DEL46-53); assay: as above; conditions: At64-ΔExLoop, extended loop Ser46 to Pro53 deleted; co-purified FAD; pH 7.0, Safranin T reference
T3 construct: gene UVR3; recombinant, pET-28a(+), E. coli C41(DE3)/pLysS
T3 sequence (O48652 with tags, fused parts or gaps DEL46-53): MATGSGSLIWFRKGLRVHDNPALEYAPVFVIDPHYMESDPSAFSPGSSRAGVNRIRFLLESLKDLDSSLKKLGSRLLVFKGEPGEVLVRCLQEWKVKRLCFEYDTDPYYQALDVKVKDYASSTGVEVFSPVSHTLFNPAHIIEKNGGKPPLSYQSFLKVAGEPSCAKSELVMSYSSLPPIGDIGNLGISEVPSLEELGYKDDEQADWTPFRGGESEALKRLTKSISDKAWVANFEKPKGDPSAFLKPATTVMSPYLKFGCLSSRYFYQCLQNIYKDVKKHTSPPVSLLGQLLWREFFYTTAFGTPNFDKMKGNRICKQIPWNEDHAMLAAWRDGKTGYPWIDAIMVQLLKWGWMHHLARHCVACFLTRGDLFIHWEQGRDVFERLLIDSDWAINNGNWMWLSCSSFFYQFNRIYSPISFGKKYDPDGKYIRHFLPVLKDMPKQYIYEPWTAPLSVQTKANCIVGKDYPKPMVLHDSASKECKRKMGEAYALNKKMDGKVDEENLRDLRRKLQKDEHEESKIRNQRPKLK

[4] = target: T4, Xl64 (Xenopus laevis, UniProt Q9I910); assay: as above; conditions: co-purified FAD; pH 7.0, Safranin T reference
T4 construct: gene Xl64phr; recombinant, pET-28a(+), E. coli C41(DE3)/pLysS
T4 sequence (Q9I910 1-526): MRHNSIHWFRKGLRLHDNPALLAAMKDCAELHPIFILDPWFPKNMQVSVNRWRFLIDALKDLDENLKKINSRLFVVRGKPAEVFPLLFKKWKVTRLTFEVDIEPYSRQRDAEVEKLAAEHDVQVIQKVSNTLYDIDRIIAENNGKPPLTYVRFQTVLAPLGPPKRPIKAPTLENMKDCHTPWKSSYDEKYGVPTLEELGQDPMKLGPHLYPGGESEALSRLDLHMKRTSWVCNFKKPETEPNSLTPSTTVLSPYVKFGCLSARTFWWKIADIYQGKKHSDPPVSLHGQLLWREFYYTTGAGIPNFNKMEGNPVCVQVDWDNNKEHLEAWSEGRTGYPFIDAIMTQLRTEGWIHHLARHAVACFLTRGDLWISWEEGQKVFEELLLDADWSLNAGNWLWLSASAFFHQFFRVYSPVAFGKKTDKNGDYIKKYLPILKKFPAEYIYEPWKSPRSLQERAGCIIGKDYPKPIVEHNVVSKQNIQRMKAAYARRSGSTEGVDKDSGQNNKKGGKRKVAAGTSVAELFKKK

[5] = target: T4, Xl64; assay: UV/vis absorption after incubation and gel filtration; conditions: synthetic 8-HDF, 100 µM with 20 µM protein, on ice; secondary pocket, antenna chromophore; protein holds FAD
[6] = target: T1, CraCRY; assay: as above; conditions: synthetic 8-HDF, 100 µM with 20 µM protein, on ice; secondary pocket, antenna chromophore; protein holds FAD

Row | Structure (SMILES) | UV/vis spectroscopy of purified holoprotein; xanthine/xanthine oxidase redox tit [1] | UV/vis spectroscopy of purified holoprotein; xanthine/xanthine oxidase redox tit [2] | UV/vis spectroscopy of purified holoprotein; xanthine/xanthine oxidase redox tit [3] | UV/vis spectroscopy of purified holoprotein; xanthine/xanthine oxidase redox tit [4] | absorption maximum of the complex [5] | absorption maximum of the complex [6]
1 | Cc1cc2nc3c(=O)[nH]c(=O)nc-3n(C[C@H](O)[C@H](O)[C@H](O)COP(=O)(O)OP(=O)(O)OC[C@H]3O[C@@H](n4cnc5c(N)ncnc54)[C@H](O)[C@@H]3O)c2cc1C [FAD, flavin adenine dinucleotide] | the Em,FAD values of the tested proteins (Xl64, At64, and CraCRY) were identical | the Em,FAD values of the tested proteins (Xl64, At64, and CraCRY) were identical | the deletion of the extended loop did not affect the FAD binding site | the Em,FAD values of the tested proteins (Xl64, At64, and CraCRY) were identical | – | –
2 | O=c1nc2n(C[C@H](O)[C@H](O)[C@H](O)CO)c3cc(O)ccc3cc-2c(=O)[nH]1 [8-HDF, 8-hydroxy-7,8-didemethyl-5-deazariboflavin] | – | – | – | – | 441 nm | 448 nm
